From patent US20230403873A1, “ORGANIC COMPOUND AND ORGANIC LIGHT-EMITTING DEVICE” (CANON KABUSHIKI KAISHA, priority 2022, published 2023)

Key:
Type in all cases: physicochemical
[1] = Evaluation of thermal properties: weight-loss initiation temperature by thermogravimetry/differential thermal analyzer STA7200; conditions: under atmospheric pressure
Procedure: (§1) The weight-loss initiation temperatures of compounds (1), (5), (10) and compound A, serving as a compound of a comparative example, under atmospheric pressure were measured with a thermogravimetry/differential thermal analyzer STA7200 (available from Hitachi High-Tech Science Corporation). In addition, the sublimation temperature was defined as the temperature at which the rate of weight loss under vacuum (2 Pa) reached 5% and was measured with a thermogravimetry/differential thermal analyzer TA7000 (available from Hitachi High-Tech Science Corporation).

[2] = Evaluation of thermal properties: sublimation temperature under vacuum by thermogravimetry/differential thermal analyzer TA7000; conditions: temperature at which the rate of weight loss under vacuum (2 Pa) reached 5%
Procedure: as §1

[3] = Evaluation of solubility in toluene; conditions: organic solvent or mixture, thermodynamic from solid; 50 mg in 1 mL of toluene, stirred at room temperature
Procedure: First, 50 mg of compound (25), 50 mg of compound (29), which were synthesized in the above examples, and 50 mg of compound A as a comparative example were placed in respective sample bottles each containing 1 mL of toluene. The mixtures were stirred at room temperature to determine whether the compounds were dissolved.

## CC(C)(C)c1cc2ccc3cc4c(c5ccc(c1)c2c35)-c1ccc(-c2cccc(-c3ccc5c(c3)C(C)(C)c3cc6ccc7cc(C(C)(C)C)cc8ccc(c3-5)c6c78)n2)cc1C4(C)C [(10)]
[1]
  Weight-loss initiation temperature: 260 °C
[2]
  Sublimation temperature: 205 °C

## CC(C)(C)c1cc2ccc3cc4c(c5ccc(c1)c2c35)-c1ccc(-c2cc(-c3ccc5c(c3)C(C)(C)c3cc6ccc7cc(C(C)(C)C)cc8ccc(c3-5)c6c78)ncn2)cc1C4(C)C [Compound (1)]
[1]
  Weight-loss initiation temperature: 450 °C
[2]
  Sublimation temperature: 385 °C

## CC(C)(C)c1cc2ccc3cc4c(c5ccc(c1)c2c35)-c1ccc(-c2ncnc(-c3ccc5c(c3)C(C)(C)c3cc6ccc7cc(C(C)(C)C)cc8ccc(c3-5)c6c78)n2)cc1C4(C)C [Compound (5)]
[1]
  Weight-loss initiation temperature: 385 °C
[2]
  Sublimation temperature: 315 °C

## CC(C)(C)c1cc2ccc3cc4c(c5ccc(c1)c2c35)-c1ccc(-c2ccc3c(c2)C2(c5ccccc5-c5ccccc52)c2cc(-c5ccc6c(c5)C(C)(C)c5cc7ccc8cc(C(C)(C)C)cc9ccc(c5-6)c7c89)ccc2-3)cc1C4(C)C [Compound (25)]
[3]
  solubility: > 50 mg/mL

## CC(C)(C)c1cc2ccc3cc4c(c5ccc(c1)c2c35)-c1ccc(-c2ccc3c(c2)C2(c5ccccc5-3)c3ccccc3-c3ccc(-c5ccc6c(c5)C(C)(C)c5cc7ccc8cc(C(C)(C)C)cc9ccc(c5-6)c7c89)cc32)cc1C4(C)C [Compound (29)]
[3]
  solubility: > 50 mg/mL

## CC(C)(C)c1cc2ccc3cc4c(c5ccc(c1)c2c35)-c1ccc(-c2ccc(-c3ccc(-c5ccc6c(c5)C(C)(C)c5cc7ccc8cc(C(C)(C)C)cc9ccc(c5-6)c7c89)cc3)cc2)cc1C4(C)C [Compound A]
[3]
  solubility: < 50 mg/mL
[1]
  Weight-loss initiation temperature: 550 °C
[2]
  Sublimation temperature: 470 °C
